From US20150119317A1, “ORAL SOLID DOSAGE FORMULATION OF 1,1-DIMETHYLETHYL [(1S)-1-CARBAMOYL)PYRROLIDIN-1-YL]CARBONYL}-2,2-DIMETHYLPROPYL]CARBAMATE” (BRISTOL-MYERS SQUIBB COMPANY, priority 2012, published 2015) come the findings set out here.

A short description of this data set: Bioequivalence study: PK of wet and dry granulated tablets in a dog model. The format is in vivo. Conditions: fed state with 50 ml high-fat meal substitute. On the procedure: A study was conducted to compare conventional tablet dosage forms. The goal of the study was to assess the in vivo performance of various prototypes of conventional tablet dosage forms (wet and dry granulated tablets) in a dog model.
The following five formulations were tested: […]
1. Phase 2 Clinical (dry granulated (DG)) tablet 2×200 mg.
2. Wet granulated (WG) Vitamin E TPGS/poloxamer tablet: 50% w/w Compound I+4.67% w/w Vitamin E TPGS+4% w/w poloxamer+14.33% w/w microcrystalline cellulose+15% lactose monohydrate+11.5% w/w croscarmellose sodium+0.5% w/w magnesium stearate; 2×200 mg (Corresponds to the formulation shown above in Table 1).
3. WG poloxamer tablet: 50% w/w Compound I+2% w/w polyvinyl pyrrolidone+4% w/w poloxamer+16% microcrystalline cellulose+16% w/w lactose monohydrate+11.5% w/w croscarmellose sodium+0.5% w/w magnesium stearate; 2×200 mg (Corresponds to the formulation shown above in Table 5).
4. Amorphous API tablet: 50% w/w Compound I+41.25% w/w microcrystalline cellulose+5% w/w croscarmellose sodium+2% w/w silicon dioxide+1% w/w sodium lauryl sulphate+0.75% w/w magnesium stearate; 2×200 mg.
5. Solution Formulation: Polyethylene glycol 400:EtOH: polysorbate 80 (50:35:15), 20 mg/mL.
The protocol used was as follows:
[…] For food-effect studies in the fed state, dogs were given 50 ml high-fat meal substitute instead of water.

With `C=C[C@@H]1C[C@]1(NC(=O)[C@@H]1C[C@@H](Oc2ncc(OC)c3ccc(Cl)cc23)CN1C(=O)[C@@H](NC(=O)OC(C)(C)C)C(C)(C)C)C(=O)NS(=O)(=O)C1CC1` [Compound I, 1,1-dimethylethyl[(1S)-1-{[(2S,4R)-4-(7-chloro-4methoxyisoquinolin-1-yloxy)-2-({(1R,2S)-1-[(cyclopropylsulfonyl)carbamoyl]-2-ethenylcyclopropyl}carbamoyl)pyrrolidin-1-yl]carbonyl}-2,2-dimethylpropyl]carbamate], the food effect entry is “significant positive food effect”.
